Results: patent US20120196933A1, “MEXILETINE PRODRUGS” (priority 2010, published 2012)
Where a name gives a salt, the structure may show the parent alone. Read-outs that look alike come from different tables or passages of the source. Marks after values point to notes of the source that are not given here.

Tests used:
[1] = Systemic availability of mexiletine in the dog from mexiletine prodrugs (oral gavage); assay type: in vivo; conditions: for T50% Cmax / AUC of mexiletine / Cmax of mexiletine / F(rel): 1 mg/kg mexiletine free base; for T50% Cmax / AUC of mexiletine / Cmax of mexiletine: plasma mexiletine; for F(rel): relative to mexiletine
Experimental: Test substances (i.e., mexiletine, and various mexiletine amino acid prodrugs) were administered by oral gavage to groups of two or some cases five dogs. The characteristics of the test animals are set out in Table 6.
Blood samples were taken at various times after administration and submitted to analysis for parent drug using a validated LC-MS-MS assay. Pharmacokinetic parameters derived from the plasma bioanalytical data were determined using Win Nonlin.

[2] = Systemic availability of mexiletine in the cynomolgus monkey from mexiletine prodrugs (oral gavage); assay type: in vivo; conditions: 1 mg/kg mexiletine free base; for AUC of mexiletine / Cmax of mexiletine / T50% Cmax: plasma mexiletine; for F(rel): relative to mexiletine
Experimental: Test substances (i.e., mexiletine, and various mexiletine amino acid prodrugs) were administered by oral gavage to groups of two and, in one case, five male cynomolgus monkeys. Blood samples were taken at various times after administration and submitted to analysis for the parent drug using a validated LC-MS-MS assay. Pharmacokinetic parameters derived from the plasma bioanalytical data were determined using Win Nonlin.

[3] = oral, cited from earlier work
[4] = tested on: patients with myotonic disorders; conditions: 1200 mg daily tocamide or 600 mg daily mexiletine, three divided doses; cited from earlier work
[5] = In vitro stability of mexiletine prodrugs under conditions prevailing in the gut; assay type: physicochemical; conditions: HPLC; for Simulated gastric fluid (pH 1.1): % remaining after 2 h/37° C.: simulated gastric fluid pH 1.1, 2 h; for Simulated intestinal fluid (pH 6.8): % remaining after 2 h/37° C.: simulated intestinal fluid pH 6.8, 2 h
Experimental: To investigate if the prodrugs of the present invention are stable in conditions mimicking the gut, various mexiletine amino acid prodrugs were incubated at 37° C. in simulated gastric and simulated intestinal juice (USP defined composition) for 2 hours. The remaining concentrations of the prodrug were then assayed by HPLC.

[6] = as above; assay type: physicochemical; conditions: 0.1M phosphate buffer pH 7.4, 2 h

Compound: Cc1cccc(C)c1OCC(C)NC(=O)[C@@H](NC(=O)[C@@H](N)C(C)C)C(C)C.Cl (stereo partly drawn) [Mexiletine valine-valine amide, Mexiletine-valine-valine Amide Hydrochloride]
- T50% Cmax [1]: 4.25** h

Compound: Cc1cccc(C)c1OCC(C)NC(=O)[C@@H](N)CCCCN=C(N)N.Cl.Cl (stereo partly drawn) [Mexiletine homo arginine amide, Mexiletine-(S)-Homoarginine Amide Dihydrochloride]
- AUC of mexiletine [2]: 424 ng·h/mL
- Cmax of mexiletine [2]: 56.8 ng/mL
- T50% Cmax [2]: 5.13 h
- F(rel) [2]: 61.5%
- AUC of mexiletine [1]: 563 ng·h/mL
- Cmax of mexiletine [1]: 86.9 ng/mL
- T50% Cmax [1]: 5.39 h
- F(rel) [1]: 52.4%

Compound: Cc1cccc(C)c1OCC(C)NC(=O)[C@@H](N)C(C)(C)O (stereo partly drawn) [Mexiletine [^α-hydroxy-(5)-valine] amide, Mexiletine [β-hydroxy-(S)-valine] amide]
- Cmax of mexiletine [2]: BLQ
- Cmax of mexiletine [1]: 1.68 ng/mL

Compound: Cc1cccc(C)c1OCC(C)NC(=O)C(N)CO (stereo not drawn) [Mexiletine serine amide]
- T50% Cmax [2]: 5.05 h
- T50% Cmax [1]: 6.00 h

Compound: NCC1(CC(=O)O)CCCCC1 [gabapentin]
- Bioavailability ([3]; 900 mg/day gabapentin): approximately 60%
- Bioavailability ([3]; 1200 mg/day gabapentin): ~47%
- Bioavailability ([3]; 2400 mg/day gabapentin): ~34%
- Bioavailability ([3]; 3600 mg/day gabapentin): ~33%
- Bioavailability ([3]; 4800 mg/day gabapentin): ~27%

Compound: Cc1cccc(C)c1OCC(C)NC(=O)CCN (stereo not drawn) [Mexiletine β alanine amide]
- Cmax of mexiletine [2]: BLQ
- Cmax of mexiletine [1]: BLQ

Compound: Cc1cccc(C)c1OCC(C)NC(=O)c1cccnc1 (stereo not drawn) [Mexiletine nicotinic acid amide]
- Bioavailability with respect to mexiletine [1]: negligible
- Cmax of mexiletine [1]: BLQ

Compound: Cc1cccc(C)c1NC(=O)C(C)N (stereo not drawn) [tocamide]
- Increase in the speed of stair step movement [4]: 2.7 fold
- Reduction in the time taken for eye opening [4]: 7 fold
- Reduction of hand opening time [4]: 4.2 fold

Compound: Cc1cccc(C)c1OCC(C)NC(=O)C(N)C1CC1 (stereo not drawn) [Mexiletine cyclopropyl glycine amide]
- Cmax of mexiletine [2]: 0.895 ng/mL
- Cmax of mexiletine [1]: 0.703 ng/mL

Compound: Cc1cccc(C)c1OCC(C)NC(=O)[C@@H](N)Cc1ccccc1.Cl (stereo partly drawn) [Mexiletine phenylalanine amide, Mexiletine-(S)-Phenylalanine Amide Hydrochloride]
- T50% Cmax [1]: 3.5** h

Compound: Cc1cccc(C)c1OCC(C)NC(=O)[C@@H](N)C[S+](C)[O-].O=C(O)C(F)(F)F (stereo partly drawn) [Mexiletine [(R)-S-methyl-cysteine, Mexiletine [(R)—S-Methyl-Cysteine Sulfoxide] Amide Trifluoroacetate]
- AUC of mexiletine [2]: 432 ng·h/mL
- Cmax of mexiletine [2]: 62.2 ng/mL
- T50% Cmax [2]: 4.80 h
- F(rel) ([2]; listed as Mexiletine methyl-cysteine sulfoxide amide, 1 mg/kg): 62.6%
- AUC of mexiletine [1]: 144 ng·h/mL
- Cmax of mexiletine [1]: 59.9 ng/mL
- T50% Cmax [1]: 1.63 h
- F(rel) [1]: 13.4%

Compound: Cc1cccc(C)c1OCC(C)NC(=O)[C@@H](N)CCCN (stereo partly drawn) [Mexiletine ornithine amide, Mexiletine-(S)-Ornithine Amide Di-hydrochloride]
- Simulated gastric fluid (pH 1.1): % remaining after 2 h/37° C. [5]: 99.7%
- Simulated intestinal fluid (pH 6.8): % remaining after 2 h/37° C. [5]: 99.8%
- pH 7.4, 37° C. 0.1M phosphate buffer: % remaining after 2 h/37° C. [6]: 99.5%

Compound: Cc1cccc(C)c1OCC(C)NC(=O)[C@@H](N)CCC(N)=O.Cl (stereo partly drawn) [Mexiletine glutamine amide]
- AUC of mexiletine [2]: 649 ng·h/mL
- Cmax of mexiletine [2]: 105 ng/mL
- T50% Cmax [2]: 4.0 h
- F(rel) [2]: 94.1%
- Bioavailability with respect to mexiletine [1]: near complete
- AUC of mexiletine [1]: 790 ng·h/mL
- Cmax of mexiletine [1]: 117 ng/mL
- T50% Cmax [1]: 5.60 h
- F(rel) [1]: 73.5%

Compound: Cc1cccc(C)c1OCC(C)NC(=O)[C@@H](N)C(C)C.Cl (stereo partly drawn) [Mexiletine valine amide, Mexiletine-(S)-Valine Amide Hydrochloride]
- Simulated gastric fluid (pH 1.1): % remaining after 2 h/37° C. [5]: 98.7%
- Simulated intestinal fluid (pH 6.8): % remaining after 2 h/37° C. [5]: 98.3%
- T50% Cmax [1]: 5.0** h
- pH 7.4, 37° C. 0.1M phosphate buffer: % remaining after 2 h/37° C. [6]: 98.8%

Compound: Cc1cccc(C)c1OCC(C)NC(=O)C(N)CCCNC(=N)N (stereo not drawn) [Mexiletine arginine amide]
- T50% Cmax [2]: 4.48 h
- T50% Cmax [1]: 6.5** h

Compound: Cc1cccc(C)c1OCC(C)NC(=O)c1ccncc1 (stereo not drawn) [Mexiletine isonicotinic acid amide]
- Bioavailability with respect to mexiletine [1]: negligible

Compound: CNC(=N)NCCC[C@H](N)C(=O)NC(C)COc1c(C)cccc1C (stereo partly drawn) [Mexiletine (S)-N-methylarginine amide, Mexiletine-(S)—N-Methylarginine Amide Dihydrochloride]
- Simulated gastric fluid (pH 1.1): % remaining after 2 h/37° C. [5]: 99.8%
- Simulated intestinal fluid (pH 6.8): % remaining after 2 h/37° C. [5]: 93.6%
- pH 7.4, 37° C. 0.1M phosphate buffer: % remaining after 2 h/37° C. [6]: 99.9%

Compound: Cc1cccc(C)c1OCC(C)NC(=O)[C@@H](N)CC(=O)O (stereo partly drawn) [Mexiletine-(S)-aspartic acid amide, Mexiletine-(S)-Aspartic Acid Amide Hydrochloride]
- Simulated gastric fluid (pH 1.1): % remaining after 2 h/37° C. [5]: 99.2%
- Simulated intestinal fluid (pH 6.8): % remaining after 2 h/37° C. [5]: 99.9%
- pH 7.4, 37° C. 0.1M phosphate buffer: % remaining after 2 h/37° C. [6]: 99.9%

Compound: CC(=O)N[C@@H](CCCCN)C(=O)NC(C)COc1c(C)cccc1C.Cl (stereo partly drawn) [Mexiletine [(S)-N^α-acetyl-lysine] amide, Mexiletine [(S)—N^α-Acetyl-Lysine] Amide Hydrochloride]
- AUC of mexiletine [2]: 363 ng·h/mL
- Cmax of mexiletine [2]: 30.3 ng/mL
- T50% Cmax [2]: 8.98 h
- F(rel) ([2]; Hydrochloride, 1 mg/kg): 60%
- F(rel) ([2]; listed as Mexiletine acetyl Lysine amide, Hydrochloride, 1 mg/kg): 52.6%
- AUC of mexiletine [1]: 893 ng·h/mL
- Cmax of mexiletine [1]: 90.8 ng/mL
- T50% Cmax [1]: 8.08 h
- F(rel) ([1]; listed as Mexiletine α acetyl lysine amide, Hydrochloride, 1 mg/kg): 83.1%

Compound: Cc1cccc(C)c1OCC(C)NC(=O)C(N)CCCNC(N)=O (stereo not drawn) [Mexiletine citrulline amide]
- T50% Cmax [1]: 3.0** h

Compound: Cc1cccc(C)c1OCC(C)NC(=O)C(N)CCCNC(=N)N(C)C.Cl.Cl (mixture of isomers) [Mexiletine-(S)—N,N-Dimethylarginine Amide Dihydrochloride]
- Simulated gastric fluid (pH 1.1): % remaining after 2 h/37° C. [5]: 99.7%
- Simulated intestinal fluid (pH 6.8): % remaining after 2 h/37° C. [5]: 96.8%
- pH 7.4, 37° C. 0.1M phosphate buffer: % remaining after 2 h/37° C. [6]: 99.6%

Compound: Cc1cccc(C)c1OCC(C)NC(=O)[C@@H](N)CC[S+](C)C (stereo partly drawn) [Mexiletine S-methyl-methionine chloride, Mexiletine-[(S)—S-Methyl-Methionine Chloride] Amide Hydrochloride]
- T50% Cmax [2]: 5.99 h
- Simulated gastric fluid (pH 1.1): % remaining after 2 h/37° C. [5]: 99.2%
- Simulated intestinal fluid (pH 6.8): % remaining after 2 h/37° C. [5]: 99.4%
- T50% Cmax [1]: 5.92 h
- pH 7.4, 37° C. 0.1M phosphate buffer: % remaining after 2 h/37° C. [6]: 99.8%

Compound: Cc1cccc(C)c1OCC(C)NC(=O)C(N)CN (stereo not drawn)
- AUC of mexiletine [2]: 801 ng·h/mL
- Cmax of mexiletine [2]: 82.7 ng/mL
- T50% Cmax [2]: 7.88 h
- F(rel) [2]: 116%
- AUC of mexiletine [1]: 8371 ng·h/mL
- Cmax of mexiletine [1]: 103 ng/mL
- T50% Cmax [1]: 10.0 h
- F(rel) [1]: 77.9%
